# From ChEMBL document CHEMBL4828771, “Discovery and Development of a Potent, Selective, and Orally Bioavailable CHK1 Inhibitor Candidate: 5-((4-((3-Amino-3-methylbutyl)amino)-5-(trifluoromethyl)pyrimidin-2-yl)amino)picolinonitrile” (J Med Chem, 2021)
# The source made the active and inactive calls. The rule behind the calls is not given here.
# Experiments:
# [1] = molecular target: T1, Serine/threonine-protein kinase Chk1 (Homo sapiens) (UniProt O14757); test: Inhibition of CHK1 in human HT-29 cells assessed as […] residue at 40 nM incubated for 24 hrs by Western blot analysis; assay type: cell-based
# T1 sequence (whole entry): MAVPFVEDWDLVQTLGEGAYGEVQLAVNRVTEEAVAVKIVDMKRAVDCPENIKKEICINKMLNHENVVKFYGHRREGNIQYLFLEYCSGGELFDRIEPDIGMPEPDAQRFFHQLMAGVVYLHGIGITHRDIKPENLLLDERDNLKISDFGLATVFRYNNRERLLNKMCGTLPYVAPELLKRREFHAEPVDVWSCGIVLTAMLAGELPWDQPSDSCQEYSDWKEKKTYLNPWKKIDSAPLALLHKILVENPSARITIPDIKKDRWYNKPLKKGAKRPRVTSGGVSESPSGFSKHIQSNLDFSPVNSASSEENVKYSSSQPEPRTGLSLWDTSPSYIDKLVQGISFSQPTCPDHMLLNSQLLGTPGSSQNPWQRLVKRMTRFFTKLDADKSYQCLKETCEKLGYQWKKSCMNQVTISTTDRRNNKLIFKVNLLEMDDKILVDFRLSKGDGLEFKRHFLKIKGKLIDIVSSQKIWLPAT
# [2] = molecular target: T1, Serine/threonine-protein kinase Chk1 (Homo sapiens); test: Inhibition of CHK1 in human HT-29 cells assessed as increase in phosphorylation at S345 residue at 40 nM incubated for 24 hrs by Western blot analysis; assay type: cell-based
# HT-29 [3] = test: Induction of gamma-H2A.X in human HT-29 cells at 40 nM incubated for 24 hrs by Western blot analysis; assay type: functional, cell-based
# HT-29 [4] = test: Antitumor activity against human HT-29 cells xenografted in mouse assessed as reduction in tumor growth by measuring T/C ratio at 100 mg/kg, iv dosed once a week for 22 days measured twice every week; assay type: functional; conditions: time 22 day
# Mus musculus [5] = test: Induction of S296 phosphorylation in tumor of mouse xenografted with human HT-29 cells at 100 mg/kg, iv dosed once a week for 22 days by Western blot analysis; assay type: functional, organism-based; conditions: time 22.0 day
# Mus musculus [6] = test: Induction of S345 phosphorylation in tumor of mouse xenografted with human HT-29 cells at 100 mg/kg, iv dosed once a week for 22 days by Western blot analysis; assay type: functional, organism-based; conditions: time 22.0 day
# [7] = MRT(0 to infinity) in ICR mouse at 10 mg/kg, po measured after 0.083 to 48 hrs by LC-MS/MS analysis; assay type: ADME, organism-based; conditions: in vivo, time 0.083-48 hrs
# [8] = AUCt in ICR mouse at 10 mg/kg, po measured after 0.083 to 48 hrs by LC-MS/MS analysis; assay type: ADME, organism-based; parameters: route oral, dose 10 mg/kg, time 0.083-48 hrs; conditions: in vivo
# [9] = AUC(0 to infinity) in ICR mouse at 10 mg/kg, po measured after 0.083 to 48 hrs by LC-MS/MS analysis; assay type: ADME, organism-based; parameters: route oral, time lower 0.083 hrs, dose 10 mg/kg, time upper 48 hrs; conditions: in vivo
# [10] = molecular target: T2, Serine/threonine-protein kinase Chk1 (Homo sapiens, UniProt O14757); test: Inhibition of CHK1 (unknown origin) incubated for 1 hr in presence of ATP by HTRF assay
# T2 sequence (O14757 whole entry): T1 sequence (whole entry)
# MV4-11 [11] = test: Antiproliferation activity against human MV4-11 cells assessed as reduction in cell viability incubated for 72 hrs by MTS assay; assay type: functional, cell-based; conditions: MV4-11, 72 h
# Z-138 = test: Antiproliferation activity against human Z138 cells assessed as reduction in cell viability incubated for 72 hrs by MTS assay; assay type: functional, cell-based; conditions: Z-138, 72 h
# hERG (KCNH2) = hERG (KCNH2) (Homo sapiens, UniProt Q12809); test: Inhibition of human ERG expressed in HEK293 cells at 10 uM by patch-clamp technique relative to control; assay type: cell-based; conditions: HEK293 cells that express hERG
# [12] = Half life in ICR mouse at 10 mg/kg, po measured after 0.083 to 48 hrs by LC-MS/MS analysis; assay type: ADME, organism-based; conditions: in vivo, time 0.083-48 hrs
# [13] = Tmax in ICR mouse at 10 mg/kg, po measured after 0.083 to 48 hrs by LC-MS/MS analysis; assay type: ADME, organism-based; conditions: in vivo, time 0.083-48 hrs
# [14] = Cmax in ICR mouse at 10 mg/kg, po measured after 0.083 to 48 hrs by LC-MS/MS analysis; assay type: ADME, organism-based; parameters: route oral, time upper 48 hrs, dose 10 mg/kg, time lower 0.083 hrs; conditions: in vivo
# [15] = Half life in ICR mouse at 20 mg/kg, po measured after 0.083 to 48 hrs by LC-MS/MS analysis; assay type: ADME, organism-based; conditions: in vivo, time 0.083-48 hrs
# [16] = Tmax in ICR mouse at 20 mg/kg, po measured after 0.083 to 48 hrs by LC-MS/MS analysis; assay type: ADME, organism-based; conditions: in vivo, time 0.083-48 hrs
# [17] = Cmax in ICR mouse at 20 mg/kg, po measured after 0.083 to 48 hrs by LC-MS/MS analysis; assay type: ADME, organism-based; parameters: route oral, time upper 48 hrs, time lower 0.083 hrs, dose 20 mg/kg; conditions: in vivo
# [18] = AUCt in ICR mouse at 20 mg/kg, po measured after 0.083 to 48 hrs by LC-MS/MS analysis; assay type: ADME, organism-based; parameters: route oral, dose 20 mg/kg, time 0.083-48 hrs; conditions: in vivo
# [19] = AUC (0 to infinity) in ICR mouse at 20 mg/kg, po measured after 0.083 to 48 hrs by LC-MS/MS analysis; assay type: ADME, organism-based; parameters: route oral, time upper 48 hrs, time lower 0.083 hrs, dose 20 mg/kg; conditions: in vivo
# [20] = MRT (0 to infinity) in ICR mouse at 20 mg/kg, po measured after 0.083 to 48 hrs by LC-MS/MS analysis; assay type: ADME, organism-based; conditions: in vivo, time 0.083-48 hrs
# MV4-11 [21] = test: Antitumor activity against human MV4-11 cells xenografted in mouse assessed as inhibition of tumor growth by measuring T/C ratio at 30 mg/kg, po dosed 5 days/week for 3 weeks measured twice every week; assay type: functional
# Sequence of hERG (KCNH2) (Q12809 whole entry): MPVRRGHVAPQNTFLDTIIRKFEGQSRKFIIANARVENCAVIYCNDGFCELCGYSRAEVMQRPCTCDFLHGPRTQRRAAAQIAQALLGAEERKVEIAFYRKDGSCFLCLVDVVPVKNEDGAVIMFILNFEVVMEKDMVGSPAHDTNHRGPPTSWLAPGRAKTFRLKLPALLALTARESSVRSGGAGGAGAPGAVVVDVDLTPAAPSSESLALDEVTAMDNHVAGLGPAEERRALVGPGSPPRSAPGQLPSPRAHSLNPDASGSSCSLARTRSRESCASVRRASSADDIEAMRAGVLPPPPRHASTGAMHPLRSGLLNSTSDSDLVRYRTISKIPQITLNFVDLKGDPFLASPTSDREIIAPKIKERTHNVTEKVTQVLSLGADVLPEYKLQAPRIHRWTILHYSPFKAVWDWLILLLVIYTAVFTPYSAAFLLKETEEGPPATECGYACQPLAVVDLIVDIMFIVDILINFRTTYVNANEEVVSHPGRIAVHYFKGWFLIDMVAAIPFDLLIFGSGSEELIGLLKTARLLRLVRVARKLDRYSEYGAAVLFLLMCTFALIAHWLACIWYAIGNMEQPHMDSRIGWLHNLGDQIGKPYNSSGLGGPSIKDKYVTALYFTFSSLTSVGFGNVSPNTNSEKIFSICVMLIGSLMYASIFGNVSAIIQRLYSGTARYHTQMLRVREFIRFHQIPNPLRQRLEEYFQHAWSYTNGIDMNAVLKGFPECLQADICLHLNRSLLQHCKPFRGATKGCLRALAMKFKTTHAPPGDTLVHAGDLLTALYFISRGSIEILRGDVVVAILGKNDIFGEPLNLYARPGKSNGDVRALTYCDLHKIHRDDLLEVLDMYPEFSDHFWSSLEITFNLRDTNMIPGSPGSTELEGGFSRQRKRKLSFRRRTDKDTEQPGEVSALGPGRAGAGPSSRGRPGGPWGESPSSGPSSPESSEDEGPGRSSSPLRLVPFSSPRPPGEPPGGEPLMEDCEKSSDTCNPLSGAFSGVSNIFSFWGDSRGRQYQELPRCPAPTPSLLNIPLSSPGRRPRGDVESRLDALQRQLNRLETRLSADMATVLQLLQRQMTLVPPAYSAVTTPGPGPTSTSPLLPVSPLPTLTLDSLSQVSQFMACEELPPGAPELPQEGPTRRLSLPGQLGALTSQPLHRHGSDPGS
smiles,measurement,setting,value
Nc1ccn([C@@H]2O[C@H](CO)[C@@H](O)C2(F)F)c(=O)n1 [GEMCITABINE],Activity,[1],Active
same,Activity,[2],Active
same,Activity,HT-29 [3],Active
same,T/C,HT-29 [4],57.7%
same,Activity,Mus musculus [5],Active
same,Activity,Mus musculus [6],Active
N#Cc1ccc(Nc2ncc(C(F)(F)F)c(N[C@H]3CC[C@H](N)CC3)n2)cn1,MRT inf,[7],3.37 h
same,AUC(0-t),[8],1430 ng·h/mL
same,AUC(0-inf),[9],1440 ng·h/mL
same,IC50,[10],32.9 nM
same,IC50,MV4-11 [11],50 nM
same,IC50,Z-138,680 nM
same,inhibition at 10 µM,hERG (KCNH2),47.9%
same,half-life,[12],2.88 h
same,Tmax,[13],1.42 h
same,Cmax,[14],371 ng/mL
CNCCCNc1nc(Nc2ccc(C#N)nc2)ncc1C(F)(F)F,IC50,[10],12.9 nM
same,IC50,MV4-11 [11],240 nM
same,IC50,Z-138,300 nM
same,inhibition at 10 µM,hERG (KCNH2),73.3%
same,half-life,[15],4.12 h
same,Tmax,[16],0.5 h
same,Cmax,[17],1530 ng/mL
same,AUC(0-t),[18],6600 ng·h/mL
same,AUC(0-inf),[19],6700 ng·h/mL
same,MRT inf,[20],5.62 h
same,T/C,MV4-11 [21],35.36%
